Experiment: Dissociation constant, pKa of the compound
Assay type: physicochemical

NC[C@H](COCc1cccc2ccccc12)OC(=O)NCCCCCCO
pKa: 8.9
